From patent publication EP0128333B1, “Agent for inactivating the mutagenicity of coffee and method therefor” (SUNTORY LIMITED, priority 1983, dated 1984)

What was measured:
human cells = settings: cited from earlier work
Neurospora crassa = settings: cited from earlier work
[1] = system: Salmonella typhimurium strain TA 100; assay: Mutagenicity / antimutagenic effect, preincubation Salmonella (Ames) test; settings: Salmonella typhimurium strain TA 100 (histidine-requiring), 48 h, pH 7.4
Method: • I) Measuring mutagenicity and the antimutagenic effect • (i) Method: • The preincubation method described in Sugimura & Nagao; Chemical Mutagens, Vol. 6, p. 41, 1981 was used. • (ii) Microorganism: • Histidine-requiring Salmonella typhimurium strain TA 100 (hereunder S. TA 100) was used. • (iii) Preparation of samples: • (a) Instant coffee: • Instant coffee powder was dissolved in distilled water. Predetermined amounts of catalase were also dissolved in distilled water, and 50 µl of each solution was mixed with an equal amount of the aqueous coffee solution. • (b) Regular coffee: • Roasted and ground coffee beans (20 g) were extracted with hot distilled water (250 ml), and the extract was filtered through coffee filter paper No. 12 manufactured by Kalita Co., Ltd. The extract was freeze-dried, and after measuring the weight of the dry product, it was dissolved in distilled water. Predetermined amounts of catalase were also dissolved in distilled water, and 50 pl of each solution was mixed with an equal amount of the aqueous solution of coffee concentrate. • (c) Catalase: • A pure isolate from calf liver as manufactured by P-L Biochemicals, Inc. was used. […] After incubation at 37°C for 48 hours, the number of colonies forming on the plate was counted as revertants.

mouse deodenum = settings: 0.1 % of hydrogen peroxide; cited from earlier work

## OO [hydrogen peroxide]
Human cells
  clastogenic to human cells: clastogenic
Neurospora crassa
  mutagenic to Neurospora crassa: mutagenic
[1]
  mutagenicity to S. TA 100: 160 revertants/108 survivors/pmole
Mouse deodenum
  carcinogenicity: cause malignant tumors
